Results: patent US8541002B2, “Vaccine for treatment and prevention of herpes simplex virus infection” (Agenus Inc., priority 2003, dated 2013)
Where no end group is shown, it is not given here.

Assay: Turbidity assay for solubility of the peptides
Format: physicochemical
Settings: solubility of the antigenic peptides in water or Dimethyl Sulfoxide (DMSO)
Protocol: A number of antigenic peptides of the invention were synthesized by chemical synthesis as described in Section 5.1.1.
A turbidity assay was used to assess the solubility of the peptides. Turbidity assays used either a Varian Cary double-beam spectrophotometer, or a Molecular Devices Spectromax absorbance plate reader (for high throughput experiments). The spectrophotometer assay read every 2 nm between 340 nm and 360 nm, and averaged the values. Samples were analyzed in duplicate using a quartz micro-cuvette that holds about 200 uL. The plate reader assay used a 96-well plate format that read every 4 nm between 340 nm and 360 nm and averaged those values. Samples in this assay were run in triplicate.

Compound	Solubility
RTLAVRGDASLCQLLFGHPVDAVILRQATRRPRIT [UL16-2]	water
VHSRVYNIIQLVLFHNNDQARRAYVARTINHPAIR [UL40-3]	water
VAPACIIAAVLAYYVTWLARALLLYVNIKRDRLPL [UL20-2]	DMSO
CC(C)C[C@H](NC(=O)[C@H](CO)NC(=O)[C@@H]1CCCN1C(=O)[C@H](CC(=O)O)NC(=O)[C@H](CS)NC(=O)[C@H](CC(=O)O)NC(=O)CNC(=O)[C@H](C)NC(=O)[C@@H]1CCCN1C(=O)[C@@H](N)CC(=O)O)C(=O)N[C@@H](Cc1c[nH]cn1)C(=O)N[C@H](C(=O)N[C@@H](CC(C)C)C(=O)N[C@@H](CC(C)C)C(=O)N[C@@H](CCCNC(=N)N)C(=O)N1CCC[C@H]1C(=O)N[C@H](C(=O)N[C@@H](CC(C)C)C(=O)N[C@@H](CC(C)C)C(=O)N1CCC[C@H]1C(=O)N[C@@H](CCCCN)C(=O)N[C@@H](CC(C)C)C(=O)N[C@@H](CC(C)C)C(=O)N[C@H](C(=O)N[C@@H](CCCNC(=N)N)C(=O)N[C@@H](C)C(=O)N1CCC[C@H]1C(=O)N[C@@H](Cc1ccccc1)C(=O)N[C@@H](CCCCN)C(=O)N[C@@H](CO)C(=O)NCC(=O)N[C@@H](C)C(=O)N[C@@H](C)C(=O)N[C@@H](C)C(=O)N[C@@H](C)C(=O)O)C(C)C)[C@@H](C)O)C(C)C [UL46-1]	water
RAYLVNPFLFAAGFLEDLSHSVFPADTQETTTRRA [UL01-1]	water
CSCC[C@H](NC(=O)[C@@H]1CCCN1C(=O)CNC(=O)[C@H](C)NC(=O)CNC(=O)[C@H](CCCNC(=N)N)NC(=O)[C@H](CCCNC(=N)N)NC(=O)[C@@H](N)Cc1ccccc1)C(=O)N[C@@H](CCCNC(=N)N)C(=O)N[C@@H](C)C(=O)N[C@@H](CCCNC(=N)N)C(=O)N1CCC[C@H]1C(=O)N[C@@H](CCCNC(=N)N)C(=O)NCC(=O)N[C@@H](CCC(=O)O)C(=O)N[C@H](C(=O)N[C@@H](CCCNC(=N)N)C(=O)N[C@@H](Cc1ccccc1)C(=O)N[C@@H](CC(C)C)C(=O)N[C@@H](Cc1c[nH]cn1)C(=O)N[C@@H](Cc1ccc(O)cc1)C(=O)N[C@@H](CC(=O)O)C(=O)N[C@@H](CCC(=O)O)C(=O)N[C@@H](C)C(=O)NCC(=O)N[C@@H](Cc1ccc(O)cc1)C(=O)N[C@@H](C)C(=O)N[C@@H](CC(C)C)C(=O)N[C@@H](Cc1ccc(O)cc1)C(=O)N[C@@H](CCCNC(=N)N)C(=O)N[C@@H](CC(=O)O)C(=O)N[C@@H](CO)C(=O)N[C@@H](CO)C(=O)N[C@@H](CO)C(=O)N[C@@H](CC(=O)O)C(=O)O)C(C)C [UL49-1]	water
CC(C)C[C@H](NC(=O)[C@H](CCCNC(=N)N)NC(=O)CNC(=O)[C@@H](NC(=O)[C@H](C)NC(=O)[C@H](C)NC(=O)[C@H](CS)NC(=O)[C@H](Cc1ccccc1)NC(=O)[C@@H](NC(=O)[C@H](CCCNC(=N)N)NC(=O)[C@H](CCCCN)NC(=O)[C@H](CC(N)=O)NC(=O)[C@H](Cc1ccccc1)NC(=O)CNC(=O)[C@H](C)NC(=O)[C@@H](NC(=O)[C@H](CCCNC(=N)N)NC(=O)[C@@H]1CCCN1C(=O)[C@@H](NC(=O)[C@H](Cc1c[nH]c2ccccc12)NC(=O)[C@@H]1CCCN1C(=O)[C@H](C)NC(=O)[C@@H](NC(=O)[C@@H]1CCCN1C(=O)[C@@H](N)CO)[C@@H](C)O)[C@@H](C)O)C(C)C)C(C)C)C(C)C)C(=O)N[C@@H](C)C(=O)N[C@@H](C)C(=O)N[C@H](C(=O)N[C@@H](Cc1c[nH]cn1)C(=O)N[C@@H](C)C(=O)N[C@@H](CCCNC(=N)N)C(=O)N[C@@H](CC(C)C)C(=O)N[C@@H](C)C(=O)N[C@@H](C)C(=O)N[C@H](C(=O)O)C(C)C)[C@@H](C)O [UL49-2]	water
CC[C@H](C)[C@H](NC(=O)[C@H](C)NC(=O)[C@H](CCC(=O)O)NC(=O)[C@H](CCCNC(=N)N)NC(=O)[C@H](CC(=O)O)NC(=O)[C@H](Cc1ccc(O)cc1)NC(=O)[C@H](CO)NC(=O)[C@@H]1CCCN1C(=O)[C@H](Cc1ccc(O)cc1)NC(=O)[C@H](CCCNC(=N)N)NC(=O)[C@H](CCCNC(=N)N)NC(=O)[C@H](CCC(N)=O)NC(=O)[C@H](Cc1ccc(O)cc1)NC(=O)[C@H](CCCCN)NC(=O)[C@@H](NC(=O)[C@@H](NC(=O)[C@H](CC(C)C)NC(=O)[C@@H](NC(=O)[C@H](Cc1ccc(O)cc1)NC(=O)[C@H](CCSC)NC(=O)[C@@H](NC(=O)[C@H](CC(N)=O)NC(=O)[C@H](Cc1c[nH]c2ccccc12)NC(=O)[C@H](CC(C)C)NC(=O)[C@H](CC(=O)O)NC(=O)[C@@H](NC(=O)[C@H](C)NC(=O)[C@@H](NC(=O)[C@@H]1CCCN1C(=O)[C@@H](NC(=O)[C@H](Cc1ccccc1)NC(=O)[C@H](Cc1ccc(O)cc1)NC(=O)CN)[C@@H](C)O)[C@@H](C)CC)C(C)C)C(C)C)[C@@H](C)O)C(C)C)C(C)C)C(=O)N[C@H](C(=O)N[C@@H](CC(C)C)C(=O)O)[C@@H](C)O [UL41-3]	DMSO
LSGIAVRLCYIAVVAGVVLVALRYEQEIQRRLFDL [UL53-2]	DMSO
CC[C@H](C)[C@H](NC(=O)[C@@H](NC(=O)[C@H](CC(=O)O)NC(=O)[C@H](CCCNC(=N)N)NC(=O)[C@H](C)N)C(C)C)C(=O)N[C@@H](CCCNC(=N)N)C(=O)N[C@@H](CCC(=O)O)C(=O)N[C@H](C(=O)N[C@@H](CC(=O)O)C(=O)N[C@@H](C)C(=O)N[C@@H](Cc1ccccc1)C(=O)N[C@@H](Cc1ccc(O)cc1)C(=O)NCC(=O)N[C@@H](CC(=O)O)C(=O)N[C@@H](CC(C)C)C(=O)N[C@@H](C)C(=O)N[C@@H](CC(=O)O)C(=O)N[C@@H](CC(C)C)C(=O)N[C@@H](CC(=O)O)C(=O)N[C@@H](CC(C)C)C(=O)N[C@@H](CCC(N)=O)C(=O)N[C@@H](CC(C)C)C(=O)N[C@@H](CCCNC(=N)N)C(=O)N[C@@H](C)C(=O)N[C@@H](C)C(=O)N1CCC[C@H]1C(=O)N1CCC[C@H]1C(=O)N[C@@H](C)C(=O)N[C@@H](CC(N)=O)C(=O)N[C@@H](CC(C)C)C(=O)N[C@@H](Cc1ccc(O)cc1)C(=O)N[C@@H](C)C(=O)N[C@@H](CCCNC(=N)N)C(=O)N[C@@H](CC(C)C)C(=O)NCC(=O)O)[C@@H](C)O [UL36-4]	DMSO
CSCC[C@H](NC(=O)[C@H](Cc1c[nH]c2ccccc12)NC(=O)[C@H](CO)NC(=O)[C@H](C)NC(=O)[C@H](Cc1c[nH]c2ccccc12)NC(=O)[C@H](Cc1c[nH]cn1)NC(=O)[C@H](Cc1ccc(O)cc1)NC(=O)[C@H](CC(C)C)NC(=O)[C@@H](NC(=O)[C@H](CO)NC(=O)[C@@H](NC(=O)[C@H](Cc1ccc(O)cc1)NC(=O)[C@H](C)NC(=O)[C@H](CC(C)C)NC(=O)[C@H](CC(C)C)NC(=O)[C@H](CCC(=O)O)NC(=O)[C@H](CO)NC(=O)[C@H](CC(C)C)NC(=O)[C@H](CCCNC(=N)N)NC(=O)[C@H](CC(C)C)NC(=O)[C@H](C)NC(=O)[C@@H](NC(=O)[C@H](CC(=O)O)NC(=O)[C@@H](NC(=O)[C@H](CO)NC(=O)[C@@H]1CCCN1C(=O)[C@H](CCCNC(=N)N)NC(=O)[C@H](CO)NC(=O)[C@@H]1CCCN1C(=O)[C@H](CC(=O)O)NC(=O)[C@H](C)N)[C@@H](C)O)[C@@H](C)O)C(C)C)C(C)C)C(=O)N[C@@H](CC(C)C)C(=O)N[C@@H](Cc1c[nH]c2ccccc12)C(=O)N[C@H](C(=O)N[C@@H](C)C(=O)O)[C@@H](C)O [UL46-2]	DMSO
PATLIPRAAAKHLAALTRVQAERSSGYWWVNGDGI [UL45-1]	water
GPGASPRLYSVVGPLGRQRLIIEELTLETQGMYYW [UL44-1]	water
